Laboratory results reported in paper PMC11722180, “Structure–Activity Relationship Studies of Tetracyclic Pyrrolocarbazoles Inhibiting Heterotetrameric Protein Kinase CK2” (Molecules, 2024).
Structures can show the parent of a compound that is named as a salt. Each block holds one compound with its values, some of them ahead of it.

Experiments:
CK2α/CK2β interaction = details: read-out: Inhibition of CK2α/CK2β interaction IC50; cited from earlier work
CK2α subunit = test system: CK2α subunit; design: method as in PMID 18553057; details: read-out: Inhibition of the kinase activity of the CK2α subunit IC50; cited from earlier work
CK2 holoenzyme (CK2α2β2) = biological target: T1, CK2 holoenzyme (CK2α2β2) (Homo sapiens, UniProt P68400); assay: Capillary electrophoresis assay, inhibition of the CK2 holoenzyme kinase activity; format: biochemical
T1 construct: made in house; host or cells: E. coli BL21(DE3)
Experimental: The inhibition of the catalytic activity of the CK2 holoenzyme (CK2α2β2) was determined in an enzyme assay. In brief, the CK2 holoenzyme was incubated with the decapeptide […] and ATP. The amount of phosphorylated peptide (Ser7) was recorded by capillary electrophoresis (CE).
The capillary electrophoresis assay to determine the inhibition of the CK2 holoenzyme (CK2α2β2) was performed as described in refs. [40, 46]. The CK2 holoenzyme was recombinantly expressed in E. coli BL21(DE3) and purified according to the protocol by Grankowski et al.. Enzymatic activity was determined in the presence of 1 µg of CK2α2β2, 60 µM of ATP, and 114 µM of the substrate peptide […]. The assay buffer contained 60 mM NaCl and 10 mM MgCl2. Inhibition was determined in three independent experiments at a compound concentration of 10 µM, and the mean value and the standard deviation (SD) were calculated.

[1] = biological target: T2, CK2α/CK2β interaction (human CK2α1–335, human CK2β1–193) (Homo sapiens, UniProt P68400); assay: Microscale thermophoresis (MST) assay of the CK2α/CK2β subunit interaction; format: binding
T2 construct: human CK2α^1–335; made in house
T2 sequence (P68400 1-335): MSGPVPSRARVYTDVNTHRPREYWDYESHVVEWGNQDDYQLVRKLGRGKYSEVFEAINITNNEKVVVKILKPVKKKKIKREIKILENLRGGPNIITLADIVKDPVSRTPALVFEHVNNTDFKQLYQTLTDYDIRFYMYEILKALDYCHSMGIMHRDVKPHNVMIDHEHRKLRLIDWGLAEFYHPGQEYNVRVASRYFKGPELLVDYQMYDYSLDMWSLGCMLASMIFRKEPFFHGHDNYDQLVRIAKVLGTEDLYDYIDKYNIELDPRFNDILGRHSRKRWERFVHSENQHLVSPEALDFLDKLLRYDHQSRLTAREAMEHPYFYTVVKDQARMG
Experimental: A microscale thermophoresis (MST) assay was used to determine the interaction of the CK2α and CK2β subunits. In this assay, a constant concentration of the fluorescently labeled CK2β subunit was added to increasing concentrations of the CK2α subunit and the thermophoretic shift was recorded, respectively. […] The same experiment was performed in the presence of 20, 50, or 100 µM of the test compounds (see Table 1). An increased KD′ value in the presence of the test compounds was evaluated as the inhibition of the association of the CK2α and CK2β subunits. The increased KD′ value was then transformed together with the employed concentration of the test compound into the Ki value for the inhibition of the CK2α/CK2β association (formula see Supporting Information).
The compounds were investigated at a final concentration of 20, 50, or 100 µM. […] Data analysis and statistical evaluation were conducted with GraphPad Prism v.6 for Windows (GraphPad Software, La Jolla, CA, USA, www.graphpad.com).

CK2 = details: ATP competitive; read-out: CK2 inhibition IC50; cited from earlier work
[2] = test system: human prostate tumor cell line; design: method as in PMID 39698287; details: cited from earlier work

T1 sequence (P68400 whole entry): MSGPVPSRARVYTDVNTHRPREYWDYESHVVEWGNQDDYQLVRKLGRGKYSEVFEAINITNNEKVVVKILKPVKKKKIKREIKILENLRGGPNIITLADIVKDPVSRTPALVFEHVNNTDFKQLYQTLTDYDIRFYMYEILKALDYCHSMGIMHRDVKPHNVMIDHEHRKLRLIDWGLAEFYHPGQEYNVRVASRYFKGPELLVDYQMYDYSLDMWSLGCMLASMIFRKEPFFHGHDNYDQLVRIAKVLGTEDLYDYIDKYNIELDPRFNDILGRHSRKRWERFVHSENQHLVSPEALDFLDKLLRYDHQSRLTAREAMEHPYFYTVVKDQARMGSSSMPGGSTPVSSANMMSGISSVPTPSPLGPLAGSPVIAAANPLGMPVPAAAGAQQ

SMILES: COc1cc([C@H]2c3c([nH]c4ccccc34)[C@@H](C(=O)N3C(=O)OC[C@@H]3Cc3ccccc3)[C@H]3C(=O)OC(=O)[C@@H]23)cc(OC)c1OC [(+)-4 (W16)]
IC50 (CK2α/CK2β interaction): […] | IC50 (CK2α subunit): 20 µM

IC50 (CK2 holoenzyme (CK2α2β2); CE assay, 60 µM ATP, 114 µM peptide […]): 2.5 µM | inhibition at 10 µM (CK2 holoenzyme (CK2α2β2); first screening, test compound concentration 10 µM, read-out: Enzyme inhibition of CK2 holoenzyme): > 50% | Kd [1]: 0.101 ± 0.004 µM | Ki ([1]; MST, global analysis, KD′ = KD [1 + (ccompound/Ki)], n.s. = KD′ not significantly different from KD, read-out: Inhibition of CK2α/CK2β Interaction Ki): 6.1 µM
SMILES: COC(=O)[C@H](Cc1c[nH]cn1)NC(=O)[C@H]1c2[nH]c3ccccc3c2[C@H](c2cc(OC)c(OC)c(OC)c2)[C@@H]2C(=O)NC(=O)[C@@H]21 [(+)-20a, Methyl N-{[(3aS,4R,10S,10aS)-1,3-dioxo-10-(3,4,5-trimethoxyphenyl)-1,2,3,3a,4,5,10,10a-octahydropyrrolo[3,4-b]carbazol-4-yl]carbonyl}-(S)-histidinate∙HCl]

SMILES: O=C1CCc2c(oc3cc(Br)c(O)c(Br)c23)/C1=C/Nc1ccccc1 [2b]
IC50 (CK2): 0.0058 µM | Antiproliferative activity [2]: showed antiproliferative activity
